pKi: −log10 of the molar value. Calls of active or inactive are those of the source. The calls are words filed in the database; no cut-off is given here.
Experiments:
[1] = target: T1, 5-hydroxytryptamine receptor 1A (Homo sapiens, UniProt P08908); assay: Displacement of [3H]-8-OH-DPAT from human serotonin 5-HT1A receptor expressed in HEK293 cells after 1 hr by microplate reader based assay; type: cell-based
T1 sequence (P08908 whole entry): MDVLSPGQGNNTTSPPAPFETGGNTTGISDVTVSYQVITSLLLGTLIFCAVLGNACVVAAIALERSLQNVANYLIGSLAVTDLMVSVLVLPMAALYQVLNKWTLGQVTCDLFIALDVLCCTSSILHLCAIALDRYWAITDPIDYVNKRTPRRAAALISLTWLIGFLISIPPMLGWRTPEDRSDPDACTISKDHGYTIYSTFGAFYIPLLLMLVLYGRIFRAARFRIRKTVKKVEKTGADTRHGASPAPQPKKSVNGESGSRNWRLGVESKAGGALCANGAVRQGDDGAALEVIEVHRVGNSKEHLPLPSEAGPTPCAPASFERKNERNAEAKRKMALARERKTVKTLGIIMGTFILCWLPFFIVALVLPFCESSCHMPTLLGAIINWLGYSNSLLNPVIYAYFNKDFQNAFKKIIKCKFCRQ

[2] = target: T2, 5-hydroxytryptamine receptor 7 (Homo sapiens, UniProt P34969); assay: Displacement of [3H]-5-carboxyamidotryptamine from human serotonin 5-HT7B receptor expressed in HEK293 cells after 1 hr by microplate reader based assay; type: cell-based
T2 sequence (P34969 whole entry): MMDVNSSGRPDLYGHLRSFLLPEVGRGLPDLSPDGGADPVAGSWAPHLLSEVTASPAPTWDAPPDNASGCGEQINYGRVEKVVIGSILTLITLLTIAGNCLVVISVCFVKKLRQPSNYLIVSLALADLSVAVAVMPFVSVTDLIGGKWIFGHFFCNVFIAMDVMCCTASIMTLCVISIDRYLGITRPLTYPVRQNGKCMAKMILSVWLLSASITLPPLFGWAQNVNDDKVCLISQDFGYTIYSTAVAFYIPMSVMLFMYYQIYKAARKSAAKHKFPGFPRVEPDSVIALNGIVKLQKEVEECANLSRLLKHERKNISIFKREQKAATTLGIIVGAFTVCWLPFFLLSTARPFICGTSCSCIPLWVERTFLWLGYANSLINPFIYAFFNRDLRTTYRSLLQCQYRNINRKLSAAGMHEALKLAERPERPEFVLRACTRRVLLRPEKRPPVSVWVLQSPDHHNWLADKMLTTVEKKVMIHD

HEK293 = assay: Selectivity ratio of Ki for human 5-HT1A receptor to Ki for human 5-HT7B receptor expressed in HEK293 cells; type: cell-based
[3] = target: T3, Adrenergic receptor alpha-1 (Rattus norvegicus, UniProt P15823+P23944+P43140); assay: Displacement of [3H]-Prazosin from alpha-1 adrenergic receptor in rat cerebral cortex after 1 hr by microplate reader based assay; type: tissue-based
T3 sequence (P15823 whole entry): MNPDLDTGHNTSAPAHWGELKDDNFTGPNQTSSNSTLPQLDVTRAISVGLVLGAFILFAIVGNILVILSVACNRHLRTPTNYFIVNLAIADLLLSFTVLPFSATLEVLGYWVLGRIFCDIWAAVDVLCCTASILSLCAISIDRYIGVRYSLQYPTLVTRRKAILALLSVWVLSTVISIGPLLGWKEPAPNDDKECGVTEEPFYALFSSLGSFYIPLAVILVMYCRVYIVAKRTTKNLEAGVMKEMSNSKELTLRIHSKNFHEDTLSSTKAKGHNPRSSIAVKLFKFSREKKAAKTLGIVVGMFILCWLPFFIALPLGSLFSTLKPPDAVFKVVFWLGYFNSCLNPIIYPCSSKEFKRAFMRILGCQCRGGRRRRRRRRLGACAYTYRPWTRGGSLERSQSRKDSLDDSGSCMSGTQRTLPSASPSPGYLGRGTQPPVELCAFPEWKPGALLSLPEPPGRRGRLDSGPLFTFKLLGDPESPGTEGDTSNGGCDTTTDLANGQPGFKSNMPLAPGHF
T3 sequence (P23944 whole entry): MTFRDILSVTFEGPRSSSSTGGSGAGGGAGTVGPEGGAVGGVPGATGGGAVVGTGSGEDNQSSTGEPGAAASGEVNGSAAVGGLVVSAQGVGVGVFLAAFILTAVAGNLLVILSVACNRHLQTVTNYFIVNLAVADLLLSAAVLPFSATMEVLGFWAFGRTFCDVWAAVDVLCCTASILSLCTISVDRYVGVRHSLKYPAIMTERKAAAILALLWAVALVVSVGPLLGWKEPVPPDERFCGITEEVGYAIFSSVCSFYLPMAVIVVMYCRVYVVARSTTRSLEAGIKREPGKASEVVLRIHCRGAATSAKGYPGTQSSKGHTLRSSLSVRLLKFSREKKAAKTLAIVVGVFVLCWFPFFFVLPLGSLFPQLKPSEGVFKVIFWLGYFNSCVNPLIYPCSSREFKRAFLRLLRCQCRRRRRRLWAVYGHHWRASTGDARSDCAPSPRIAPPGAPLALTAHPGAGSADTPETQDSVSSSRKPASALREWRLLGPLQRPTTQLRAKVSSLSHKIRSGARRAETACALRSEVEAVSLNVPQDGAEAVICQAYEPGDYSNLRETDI
T3 sequence (P43140 whole entry): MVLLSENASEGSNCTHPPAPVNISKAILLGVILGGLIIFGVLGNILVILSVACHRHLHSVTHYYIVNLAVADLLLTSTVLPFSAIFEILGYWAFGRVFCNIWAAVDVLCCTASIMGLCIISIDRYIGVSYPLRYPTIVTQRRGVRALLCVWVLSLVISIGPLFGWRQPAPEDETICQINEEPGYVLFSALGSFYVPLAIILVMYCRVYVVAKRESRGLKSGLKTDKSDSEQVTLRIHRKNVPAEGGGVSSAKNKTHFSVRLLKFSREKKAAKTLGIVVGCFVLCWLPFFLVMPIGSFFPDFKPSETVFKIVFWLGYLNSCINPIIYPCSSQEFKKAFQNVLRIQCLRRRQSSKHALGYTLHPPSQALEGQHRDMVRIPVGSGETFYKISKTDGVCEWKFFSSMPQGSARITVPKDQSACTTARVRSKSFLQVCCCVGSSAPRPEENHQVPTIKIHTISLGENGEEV

[4] = target: T4, Muscarinic acetylcholine receptor M1 (Homo sapiens) (UniProt P11229); assay: Binding affinity to muscarinic acetylcholine receptor M1 (unknown origin) at 1 uM
T4 sequence (whole entry): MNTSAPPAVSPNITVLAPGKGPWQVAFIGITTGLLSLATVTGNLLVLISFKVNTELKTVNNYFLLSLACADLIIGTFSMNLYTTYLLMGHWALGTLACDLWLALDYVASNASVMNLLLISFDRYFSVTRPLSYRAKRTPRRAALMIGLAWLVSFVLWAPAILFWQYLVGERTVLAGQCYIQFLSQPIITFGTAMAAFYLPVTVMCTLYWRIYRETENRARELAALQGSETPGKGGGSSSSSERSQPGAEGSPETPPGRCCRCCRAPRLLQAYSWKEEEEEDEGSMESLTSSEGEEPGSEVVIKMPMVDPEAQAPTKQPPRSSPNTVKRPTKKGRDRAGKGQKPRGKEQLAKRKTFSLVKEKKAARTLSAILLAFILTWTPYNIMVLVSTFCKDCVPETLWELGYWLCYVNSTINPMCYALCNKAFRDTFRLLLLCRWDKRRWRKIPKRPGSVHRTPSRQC

D(2) dopamine receptor = D(2) dopamine receptor (Homo sapiens, UniProt P14416); assay: Displacement of [3H]-Raclopride from human dopamine D2L receptor expressed in HEK293 cells after 1 hr by microplate reader based assay; type: cell-based
D(2) dopamine receptor, sequence (P14416 whole entry): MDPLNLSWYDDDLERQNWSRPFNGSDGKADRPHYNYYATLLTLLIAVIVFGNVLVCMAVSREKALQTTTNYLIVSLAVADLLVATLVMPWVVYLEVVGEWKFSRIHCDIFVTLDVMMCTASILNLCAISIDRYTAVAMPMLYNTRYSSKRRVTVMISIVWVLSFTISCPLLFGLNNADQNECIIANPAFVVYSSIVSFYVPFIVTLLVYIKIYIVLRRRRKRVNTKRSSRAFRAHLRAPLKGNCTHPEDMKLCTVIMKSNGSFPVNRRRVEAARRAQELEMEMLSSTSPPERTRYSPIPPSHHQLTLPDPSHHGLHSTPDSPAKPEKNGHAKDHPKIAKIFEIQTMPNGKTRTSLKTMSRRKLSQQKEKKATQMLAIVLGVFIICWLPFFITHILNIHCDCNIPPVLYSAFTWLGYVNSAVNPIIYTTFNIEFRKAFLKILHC

[5] = target: Histamine H1 receptor (Homo sapiens) (UniProt P35367); assay: Binding affinity to histamine H1 receptor (unknown origin) at 1 uM
Histamine H1 receptor (Homo sapiens), sequence (P35367 whole entry): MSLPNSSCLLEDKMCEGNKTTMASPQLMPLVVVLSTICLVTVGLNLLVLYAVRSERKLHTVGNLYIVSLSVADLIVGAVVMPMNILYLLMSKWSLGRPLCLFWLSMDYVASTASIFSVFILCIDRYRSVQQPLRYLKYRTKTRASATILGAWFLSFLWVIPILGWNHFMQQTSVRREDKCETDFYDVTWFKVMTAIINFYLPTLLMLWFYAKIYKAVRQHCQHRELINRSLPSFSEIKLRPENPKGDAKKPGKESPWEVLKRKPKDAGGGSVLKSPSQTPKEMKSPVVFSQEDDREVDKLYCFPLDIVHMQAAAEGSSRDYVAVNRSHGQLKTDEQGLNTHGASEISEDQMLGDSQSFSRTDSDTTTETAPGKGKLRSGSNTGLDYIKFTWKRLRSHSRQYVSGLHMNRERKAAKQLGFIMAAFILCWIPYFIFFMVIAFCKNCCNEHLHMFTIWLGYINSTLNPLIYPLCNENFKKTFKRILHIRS

[6] = target: Beta-1 adrenergic receptor (Homo sapiens) (UniProt P08588); assay: Binding affinity to beta-1 adrenergic receptor (unknown origin) at 1 uM
Beta-1 adrenergic receptor (Homo sapiens), sequence (P08588 whole entry, looked up): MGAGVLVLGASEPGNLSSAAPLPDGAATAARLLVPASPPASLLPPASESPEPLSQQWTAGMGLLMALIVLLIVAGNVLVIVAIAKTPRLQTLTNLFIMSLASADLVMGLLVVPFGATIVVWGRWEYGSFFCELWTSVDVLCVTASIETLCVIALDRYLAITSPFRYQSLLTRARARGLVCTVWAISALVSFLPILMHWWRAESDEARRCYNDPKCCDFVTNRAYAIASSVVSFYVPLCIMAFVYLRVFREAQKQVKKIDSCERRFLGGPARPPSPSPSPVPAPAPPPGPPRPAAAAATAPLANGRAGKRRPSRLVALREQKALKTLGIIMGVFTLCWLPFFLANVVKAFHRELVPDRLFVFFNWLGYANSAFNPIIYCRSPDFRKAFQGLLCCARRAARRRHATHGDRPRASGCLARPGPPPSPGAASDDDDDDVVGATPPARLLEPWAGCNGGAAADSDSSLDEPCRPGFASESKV

[7] = target: 5-hydroxytryptamine receptor 6 (Homo sapiens, UniProt P50406); assay: Displacement of [3H]-LSD from human serotonin 5-HT6 receptor expressed in HEK293 cells after 1 hr by microplate reader based assay; type: cell-based
5-hydroxytryptamine receptor 6, sequence (P50406 whole entry): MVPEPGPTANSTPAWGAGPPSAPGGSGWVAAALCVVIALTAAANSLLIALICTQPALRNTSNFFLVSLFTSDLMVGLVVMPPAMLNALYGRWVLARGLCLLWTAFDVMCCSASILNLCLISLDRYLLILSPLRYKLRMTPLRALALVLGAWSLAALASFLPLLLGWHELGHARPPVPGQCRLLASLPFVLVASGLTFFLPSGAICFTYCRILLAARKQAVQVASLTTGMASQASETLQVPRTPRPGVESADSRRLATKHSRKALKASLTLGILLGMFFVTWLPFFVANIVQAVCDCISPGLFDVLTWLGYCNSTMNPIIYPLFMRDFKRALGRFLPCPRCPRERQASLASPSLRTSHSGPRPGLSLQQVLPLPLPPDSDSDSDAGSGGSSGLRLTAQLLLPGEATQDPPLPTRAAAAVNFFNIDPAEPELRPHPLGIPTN

Mus musculus [8] = assay: Toxicity in albino Swiss mouse assessed as effect on spontaneous locomotor activity at 2.5 mg/kg, ip dosed 60 mins before test measured for 2 to 6 mins by M3 multichannel activity test; type: organism-based; conditions: in vivo
Mus musculus [9] = assay: Anxiolytic-like activity in albino Swiss mouse assessed as increase in number of punished crossings at 1.25 mg/kg, ip dosed 60 mins before test by four plate test; type: functional
Rattus norvegicus = assay: Pro-cognitive effect in Sprague-Dawley rat assessed as reduction in PCP-induced memory deficits administered ip 1 hr 15 mins before familiarization phase by novel object recognition test; type: functional, organism-based
[10] = target: T2, 5-hydroxytryptamine receptor 7; assay: Antagonist activity at human 5-HT7B receptor expressed in HEK293 cells assessed as inhibition of 5-carboxyamidotryptamine-induced cAMP production after 30 mins by TR-FRET assay; type: functional, cell-based
Mus musculus [11] = assay: Toxicity in albino Swiss mouse assessed as effect on spontaneous locomotor activity at 1.25 mg/kg, ip dosed 60 mins before test measured for 1 min 15 secs by M3 multichannel activity test; type: organism-based; conditions: in vivo
[12] = target: T2, 5-hydroxytryptamine receptor 7; assay: Antagonist activity at human serotonin 5-HT7B receptor expressed in CHO cells assessed as inhibition of serotonin-induced cAMP production at 1 uM after 30 mins by HTRF assay relative to control; type: functional, cell-based
Mus musculus [13] = assay: Antidepressant-like activity in albino Swiss mouse assessed as reduction in immobility time at 10 mg/kg, ip dosed 60 mins before test by forced swim test; type: functional
Mus musculus [14] = assay: Toxicity in ip dosed albino Swiss mouse assessed as effect on spontaneous locomotor activity dosed 60 mins before test measured for 1 min 15 secs by M3 multichannel activity test; type: organism-based; conditions: in vivo
Mus musculus [15] = assay: Toxicity in albino Swiss mouse assessed as effect on spontaneous locomotor activity at 5 mg/kg, ip dosed 60 mins before test measured for 2 to 6 mins by M3 multichannel activity test; type: organism-based; conditions: in vivo
[16] = target: T2, 5-hydroxytryptamine receptor 7; assay: Antagonist activity at human serotonin 5-HT7B receptor expressed in CHO cells assessed as inhibition of serotonin-induced cAMP production after 30 mins by HTRF assay; type: functional, cell-based

Row | SMILES | pKi [1] | pKi [2] | Ratio Ki (HEK293) | other results
1 | O=S(=O)(NC1CCN(CCOc2ccccc2-c2ccccc2)CC1)c1ccc(F)c(F)c1 | – | – | 45 | Ki [3]: 2541 nM
2 | O=S(=O)(NC1CCN(CCOc2ccccc2-c2ccccc2)CC1)c1cccc(F)c1 | 6.43 | 7.44 | 10 | –
3 | CC(C)c1ccccc1OCCN1CCC(NS(=O)(=O)c2cccc(F)c2)CC1 | 6.45 | 8.05 | – | Activity [4]: < 10%; pKi (D(2) dopamine receptor): 6.99; Activity [5]: < 74%; Activity [6]: < 10%; pKi [7]: 6.33; Activity (Mus musculus [8]): Non-toxic; Activity (Mus musculus [9]): 75%; Activity (Rattus norvegicus): Dose-dependent effect; Kb [10]: 26 nM; Activity (Mus musculus [11]): Non-toxic
4 | Cn1cc(S(=O)(=O)NC2CCN(CCOc3ccccc3-c3ccccc3)CC2)cn1 | 6.49 | 7.72 | 17 | –
5 | CC(C)c1ccccc1OCCN1CCC(NS(=O)(=O)c2ccc(F)c(F)c2)CC1 | 6.43 | 7.55 | 14 | –
6 | CC(C)c1ccccc1OCCN1CCC(NS(=O)(=O)c2ccccc2)CC1 | 6.60 | 7.38 | 6 | –
7 | CC(C)c1ccccc1OCCN1CCC(NS(=O)(=O)c2cnn(C)c2)CC1 | 6.21 | 7.72 | 32 | pKi (D(2) dopamine receptor): 6.85; inhibition [12]: 85%; pKi [7]: 6.19; Ki [3]: 389 nM
8 | O=S(=O)(NC1CCN(CCOc2ccccc2-c2ccccc2)CC1)c1ccccc1 | 6.55 | 7.31 | 6 | –
9 | CC(C)c1ccccc1OCCN1CCC(NS(=O)(=O)c2ccc(Cl)s2)CC1 | 6.34 | 7.62 | 19 | –
10 | CC(C)CS(=O)(=O)NC1CCN(CCOc2ccccc2C(C)C)CC1 | 6.56 | 6.70 | 1 | –
11 | CC(C)c1ccccc1OCCN1CCC(NS(=O)(=O)c2ccccc2F)CC1 | – | – | – | Activity [4]: < 10%; pKi (D(2) dopamine receptor): 7.29; Activity [5]: < 74%; Activity (Mus musculus [14]): Non-toxic; Activity (Mus musculus [15]): Non-toxic; Kb [16]: 1 nM; Activity [6]: < 10%; pKi [7]: 6.62; Activity (Rattus norvegicus): Dose-dependent effect; Kb [10]: 12 nM; Ki [3]: 629 nM

Continued by rising pKi [1], values first:

Row | pKi [1] | pKi [2] | SMILES | Ratio Ki (HEK293) | other results
12 | 6.63 | 8.22 | O=S(=O)(NC1CCN(CCOc2ccccc2-c2ccccc2)CC1)c1cccc(Cl)c1 | 33 | pKi (D(2) dopamine receptor): 7.07; inhibition [12]: 95%; pKi [7]: 6.56; Activity (Rattus norvegicus): Dose-dependent effect; Ki [3]: 2019 nM
13 | 6.63 | 8.15 | CC(C)c1ccccc1OCCN1CCC(NS(=O)(=O)c2cccc3ncccc23)CC1 | 33 | pKi (D(2) dopamine receptor): 6.98; inhibition [12]: 96%; pKi [7]: 6.63; Activity (Rattus norvegicus): Dose-dependent effect; Ki [3]: 712 nM
14 | 6.68 | 8.10 | CC(C)c1ccccc1OCCN1CCC(NS(=O)(=O)c2cc(F)ccc2F)CC1 | 26 | pKi (D(2) dopamine receptor): 6.83; inhibition [12]: 84%; pKi [7]: 6.49; Activity (Mus musculus [13]): Active; Ki [3]: 589 nM
15 | 6.72 | – | O=S(=O)(NC1CCN(CCOc2ccccc2-c2ccccc2)CC1)c1ccc(Cl)s1 | 16 | –
16 | 6.74 | 8.15 | O=S(=O)(NC1CCN(CCOc2ccccc2-c2ccccc2)CC1)c1cc(F)ccc1F | 26 | –
17 | 6.75 | 8.10 | CC(C)c1ccccc1OCCN1CCC(NS(=O)(=O)c2cccc(Cl)c2)CC1 | 22 | –
18 | 6.80 | 8.15 | O=S(=O)(NC1CCN(CCOc2ccccc2-c2ccccc2)CC1)c1ccc(F)cc1 | 23 | –
19 | 6.99 | 7.68 | CC(C)c1ccccc1OCCN1CCC(NS(=O)(=O)c2cncc3ccccc23)CC1 | 5 | –
20 | 6.99 | 8.10 | O=S(=O)(NC1CCN(CCOc2ccccc2-c2ccccc2)CC1)c1cccc2ncccc12 | 13 | –
21 | 7.13 | 8.05 | O=S(=O)(NC1CCN(CCOc2ccccc2-c2ccccc2)CC1)c1cncc2ccccc12 | 8 | –
22 | 7.13 | 7.36 | CC(C)CS(=O)(=O)NC1CCN(CCOc2ccccc2-c2ccccc2)CC1 | 2 | –

Reference: ChEMBL document CHEMBL3739404, “Arylsulfonamide derivatives of (aryloxy)ethylpiperidines as selective 5-HT7receptor antagonists and their psychotropic properties” (Medchemcomm, 2015)
